According to patent US11351291B2, “Systems or apparatuses and methods for performing dialysis” (ADVITOS GMBH, priority 2016, dated 2022):

Target: T1, albumin (Homo sapiens, UniProt P02768)
Assay: not given
Details: binding to albumin; reported association constants; cited from earlier work

T1 sequence (P02768 25-609): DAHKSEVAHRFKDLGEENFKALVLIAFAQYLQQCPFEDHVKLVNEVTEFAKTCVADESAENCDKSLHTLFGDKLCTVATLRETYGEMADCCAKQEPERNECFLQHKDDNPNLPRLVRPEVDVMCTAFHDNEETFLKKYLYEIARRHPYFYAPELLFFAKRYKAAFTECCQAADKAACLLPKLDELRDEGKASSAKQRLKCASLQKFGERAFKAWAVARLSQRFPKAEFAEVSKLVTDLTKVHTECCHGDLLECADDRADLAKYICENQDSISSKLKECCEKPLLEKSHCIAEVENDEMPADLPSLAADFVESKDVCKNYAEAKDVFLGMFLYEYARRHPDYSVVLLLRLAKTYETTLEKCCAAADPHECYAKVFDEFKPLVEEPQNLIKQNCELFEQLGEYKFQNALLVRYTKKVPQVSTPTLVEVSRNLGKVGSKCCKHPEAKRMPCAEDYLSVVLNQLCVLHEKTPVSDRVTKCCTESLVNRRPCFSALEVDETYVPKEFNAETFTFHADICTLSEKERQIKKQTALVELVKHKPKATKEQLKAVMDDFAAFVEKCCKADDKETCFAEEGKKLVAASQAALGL

Compound	Association constant, KA [M⁻¹]
C=C1CC[C@H](O)C/C1=C/C=C1\CCC[C@]2(C)[C@@H]([C@H](C)CCCC(C)(C)O)CC[C@@H]12 [25,OH—VitaminD3]	600000
C[C@]12CCC(=O)C=C1CC[C@@H]1[C@@H]2[C@@H](O)C[C@]2(C=O)[C@@H](C(=O)CO)CC[C@@H]12 [Aldosterone]	3200
C/C1=C2N=C(/C=C3N=C(/C(C)=C4\[N-]C(C(CC(N)=O)C4(C)CCC(=O)NCC(C)OP(=O)([O-])OC4C(CO)OC(n5cnc6cc(C)c(C)cc65)C4O)C4(C)N=C1C(CCC(N)=O)C4(C)CC(N)=O)C(CCC(N)=O)C\3(C)C)C(CCC(N)=O)C/2(C)CC(N)=O.O.[Co+3].[OH-] (centres unmarked) [Aquocobalamin]	2e+07
[Ca+2] [Calcium]	1510
Cl [Chloride]	720
C[C@]12CCC(=O)C=C1CC[C@@H]1[C@@H]2[C@@H](O)C[C@@]2(C)[C@H]1CC[C@]2(O)C(=O)CO [Cortisol]	5000
CCCCC[C@H](O)/C=C/[C@H]1[C@H](O)CC(=O)[C@@H]1CCCCCCC(=O)O [Eicosanoids (PGE1), PGE1]	70000
C=CC1=C(C)c2cc3[n-]c(cc4[n-]c(cc5nc(cc1n2)C(C)=C5C=C)c(C)c4CCC(=O)O)c(CCC(=O)O)c3C.O.[Fe+2] [Hematin]	1.1e+08
N[C@@H](Cc1c[nH]c2ccccc12)C(=O)O [L-tryptophan]	10000
[Mg+2] [Magnesium]	100
CC(=O)[C@H]1CC[C@H]2[C@@H]3CCC4=CC(=O)CC[C@]4(C)[C@H]3CC[C@]12C [Progesterone]	360000
C[C@]12CC[C@H]3[C@@H](CCC4=CC(=O)CC[C@@]43C)[C@@H]1CC[C@@H]2O [Testosterone]	24000
[Zn+2] [Zinc(II)]	3.4e+07
Copper(II)	1.5e+16
t-25-(OH)2—Vitamin D3	50000

Target: T1, albumin
Assay: pH dependence of binding affinity for albumin
Details: pH above about 3
Text: Adjusting the pH of the fluids to the acidic and/or basic range makes it possible to selectively influence the binding of different substances to the respective carrier proteins or adsorbers. […] For example, the binding of copper ions to albumin can be weakened in this way so that free, dissolved copper ions in the following filter can be removed by dialysis, filtration, diafiltration, centrifugation, a field, or sorting by weight difference. Analogously, the pH of the fluid can be adjusted to the basic range so that the toxins liberated in the alkaline range can then be eliminated from the fluid by dialysis, filtration or diafiltration. […] A pH range of 8-13 is often preferred.
Devices for adjusting the pH include especially devices for adding acid or base, for example metering pumps. Appropriate acids or bases arc aqueous solutions of biologically compatible acids or bases. It is generally preferable to use acids or bases whose conjugate bases or acids are ions that occur naturally in the human organism. Examples of acids which can be used are hydrochloric acid, sulfuric acid or acetic acid, hydrochloric acid being preferred. Examples of bases which can be used are sodium hydroxide solution or potassium hydroxide solution, sodium hydroxide solution being preferred. […]

Compound	binding affinity for albumin
Copper(II)	particularly high binding affinity

Same assay, conditions: pH range around 2

Compound	binding affinity for albumin
Copper(II)	significantly lowered
